Test results taken from BindingDB's records for doi:10.1021/jm8010993.

What was measured:
Assay in all cases: PDE4 Enzyme Assay
Conditions in all cases: pH 8; 34 °C
[1] = biological target: cAMP-specific 3',5'-cyclic phosphodiesterase 4B (Homo sapiens, UniProt Q07343)
Description: (§1) The samples were assayed in a solution composed of PDE4, [3H]cAMP/cAMP, and test compounds. To convert AMP to adenosine, snake venom was added to each sample after reactions were stopped. The reaction products were separated by anion-exchange chromatography performed on AGl-X8 resin, and the amount of unbound [3H] adenosine was collected and quantified by scintillation counting.

[2] = biological target: cAMP-specific 3',5'-cyclic phosphodiesterase 4A (Homo sapiens, UniProt P27815)
Description: as §1

[3] = biological target: cAMP-specific 3',5'-cyclic phosphodiesterase 4D (Homo sapiens, UniProt Q08499)
Description: as §1

cAMP-specific 3',5'-cyclic phosphodiesterase 4B, sequence (Q07343 whole entry): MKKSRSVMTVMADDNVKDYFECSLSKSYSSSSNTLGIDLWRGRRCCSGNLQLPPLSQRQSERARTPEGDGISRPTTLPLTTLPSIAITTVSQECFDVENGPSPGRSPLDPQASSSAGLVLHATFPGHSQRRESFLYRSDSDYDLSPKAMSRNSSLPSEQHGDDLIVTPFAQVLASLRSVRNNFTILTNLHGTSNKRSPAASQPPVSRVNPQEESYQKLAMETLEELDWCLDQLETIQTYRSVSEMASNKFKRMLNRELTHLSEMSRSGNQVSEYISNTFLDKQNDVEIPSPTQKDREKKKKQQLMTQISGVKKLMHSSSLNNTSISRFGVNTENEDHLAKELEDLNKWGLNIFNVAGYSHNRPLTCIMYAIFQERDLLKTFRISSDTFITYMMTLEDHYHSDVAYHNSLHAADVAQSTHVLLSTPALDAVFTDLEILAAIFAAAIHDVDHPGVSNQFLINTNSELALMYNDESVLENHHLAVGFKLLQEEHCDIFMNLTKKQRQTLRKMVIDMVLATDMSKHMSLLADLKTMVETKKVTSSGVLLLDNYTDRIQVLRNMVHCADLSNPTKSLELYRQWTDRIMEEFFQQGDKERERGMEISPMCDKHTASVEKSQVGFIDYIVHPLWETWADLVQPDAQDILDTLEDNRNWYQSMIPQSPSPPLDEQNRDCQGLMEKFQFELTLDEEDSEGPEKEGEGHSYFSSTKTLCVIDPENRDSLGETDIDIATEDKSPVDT
cAMP-specific 3',5'-cyclic phosphodiesterase 4A, sequence (P27815 whole entry): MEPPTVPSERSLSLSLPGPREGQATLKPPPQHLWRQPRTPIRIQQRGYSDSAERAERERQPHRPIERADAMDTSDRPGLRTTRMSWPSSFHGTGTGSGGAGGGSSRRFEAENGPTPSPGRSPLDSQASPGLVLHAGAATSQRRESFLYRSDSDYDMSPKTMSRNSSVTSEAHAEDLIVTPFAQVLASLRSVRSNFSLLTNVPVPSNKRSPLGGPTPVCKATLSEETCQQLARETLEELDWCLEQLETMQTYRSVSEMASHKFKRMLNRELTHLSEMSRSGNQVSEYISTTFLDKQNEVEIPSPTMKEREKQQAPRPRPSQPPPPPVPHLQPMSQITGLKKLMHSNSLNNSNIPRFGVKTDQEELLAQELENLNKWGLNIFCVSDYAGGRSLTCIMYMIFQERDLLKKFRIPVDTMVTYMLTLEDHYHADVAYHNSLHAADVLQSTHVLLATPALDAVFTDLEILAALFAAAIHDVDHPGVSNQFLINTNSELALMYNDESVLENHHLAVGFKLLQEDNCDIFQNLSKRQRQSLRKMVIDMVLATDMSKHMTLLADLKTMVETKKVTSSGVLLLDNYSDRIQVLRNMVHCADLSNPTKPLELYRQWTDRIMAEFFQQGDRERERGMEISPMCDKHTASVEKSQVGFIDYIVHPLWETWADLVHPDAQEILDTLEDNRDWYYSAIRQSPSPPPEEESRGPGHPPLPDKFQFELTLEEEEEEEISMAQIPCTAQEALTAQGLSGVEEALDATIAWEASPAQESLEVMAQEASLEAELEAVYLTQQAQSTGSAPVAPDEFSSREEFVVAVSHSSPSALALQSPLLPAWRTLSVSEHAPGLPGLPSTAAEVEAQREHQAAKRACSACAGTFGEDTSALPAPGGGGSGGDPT
cAMP-specific 3',5'-cyclic phosphodiesterase 4D, sequence (Q08499 whole entry): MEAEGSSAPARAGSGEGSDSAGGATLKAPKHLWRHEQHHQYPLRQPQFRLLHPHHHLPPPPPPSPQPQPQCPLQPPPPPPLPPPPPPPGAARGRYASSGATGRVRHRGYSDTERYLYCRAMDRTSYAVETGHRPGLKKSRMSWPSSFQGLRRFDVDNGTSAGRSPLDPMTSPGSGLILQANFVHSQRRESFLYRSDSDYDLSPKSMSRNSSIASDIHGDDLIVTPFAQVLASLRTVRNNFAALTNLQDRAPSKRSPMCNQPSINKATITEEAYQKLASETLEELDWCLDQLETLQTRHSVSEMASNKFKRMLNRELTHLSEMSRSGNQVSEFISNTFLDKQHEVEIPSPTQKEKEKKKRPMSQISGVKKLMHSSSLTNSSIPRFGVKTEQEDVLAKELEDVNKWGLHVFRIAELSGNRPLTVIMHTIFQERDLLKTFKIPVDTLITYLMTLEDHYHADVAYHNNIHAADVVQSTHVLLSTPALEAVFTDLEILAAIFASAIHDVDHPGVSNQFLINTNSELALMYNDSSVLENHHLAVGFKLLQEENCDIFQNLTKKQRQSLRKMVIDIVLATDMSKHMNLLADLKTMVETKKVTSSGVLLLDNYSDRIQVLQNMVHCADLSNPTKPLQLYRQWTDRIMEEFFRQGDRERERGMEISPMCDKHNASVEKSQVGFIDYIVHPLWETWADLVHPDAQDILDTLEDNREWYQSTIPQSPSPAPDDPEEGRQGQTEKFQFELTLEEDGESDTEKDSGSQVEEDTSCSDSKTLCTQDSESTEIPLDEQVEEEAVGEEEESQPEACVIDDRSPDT

Structure (SMILES): COc1ccc(F)c(CCC2CCC(CCNCCCCCN3N=C(c4ccc(OC)c(OC)c4)C4CC=CCC4C3=O)O2)c1 (stereo not drawn) [phthalazinone, 21]
- Ki [1]: 0.199 µM
- Ki [2]: > 1 µM
- Ki [3]: 0.002 µM
